The assay addresses T1, bacterial NAD synthetase enzyme (Bacillus subtilis, UniProt P08164).
T1 sequence (P08164 2-272 limits assumed): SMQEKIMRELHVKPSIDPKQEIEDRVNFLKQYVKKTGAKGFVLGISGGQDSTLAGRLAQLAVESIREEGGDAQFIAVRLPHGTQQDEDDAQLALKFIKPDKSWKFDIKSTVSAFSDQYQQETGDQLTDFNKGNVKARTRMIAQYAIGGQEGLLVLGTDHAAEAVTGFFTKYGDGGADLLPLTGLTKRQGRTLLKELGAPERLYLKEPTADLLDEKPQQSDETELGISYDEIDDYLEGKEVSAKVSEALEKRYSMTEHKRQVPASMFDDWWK
The experiment in a line: biochemical. The format is biochemical.

[1] abbreviates: compound at 0.2 mM (Table 312B).
Where [2] appears, read: compound at 0.2 mM (Table 312A).

Like-named read-outs stand apart in the source and are kept apart here.

As for `CC(=O)C=Cc1ccc(OCCCCCCCCOC(=O)Cc2ccc([N+](C)(C)C)cc2)cc1` [Compound 1081], the IC50 was determined as 67.5 µM and at 200 µM the inhibition was 84%.

For the compound `COc1ccccc1OCCCCCCCCOC(=O)Cc1ccc(N(C)C)cc1` [Compound 1039], the % Inhibition (usually the relative decrease from the control value, in per cent) under setting [1] came to 30%. Take `COC(=O)c1cc2ccccc2n1CCCCCCCCCOC(=O)c1cccnc1` [Compound 950]: the “% Inhibition” value (compound at 0.05 mM) is given as 7.32%. Consider `COC(=O)c1ccc2[nH]c(CCCCCCC[n+]3cccc4ccccc43)cc2c1` [Compound 490], for which the “% Inhibition” value under setting [2] is on record as 2.96%. Turning to `O=[N+]([O-])c1ccc2[nH]c(CCC[n+]3ccc4ccccc4c3)cc2c1` [Compound 546], the “% Inhibition” value (compound at 0.1 mM (Table 314)) is 4.72%.

Turning to `FC(F)(F)c1ccc2cc(CCCC[n+]3ccc4ccccc4c3)[nH]c2c1` [Compound 505], the “% Inhibition” value under setting [2] was 25.51%.

Consider `CC(=O)c1ccc2[nH]c(CCCCOC(=O)c3ccc([N+](C)(C)C)cc3)cc2c1` [Compound 892], for which, for the setting “compound at 0.25 mM”, the “% Inhibition” value was 97.7%. Turning to `O=[N+]([O-])c1ccc2[nH]c(CCCCC[n+]3ccccc3)cc2c1` [Compound 332], the “% Inhibition” value (compound at 0.1 mM (Table 314)) is 12.27%. On to `CCCCc1oc2ccccc2c1C(=O)c1ccc(OCCCCCCCCOC(=O)Cc2ccc([N+](C)(C)C)cc2)cc1` [Compound 1084], for which, under “NAD synthetase enzyme inhibition, read-out: IC50 of Compounds”, the IC50 is 12.5 µM. The “% Inhibition” value under setting [1] is 106%.

`C[N+](C)(C)c1ccc(CC(=O)OCCCCCCCCn2ccc3ccccc32)cc1` [Compound 981]: the IC50 was 60 µM and the inhibition (usually the change of the read-out against control, counted positive when it falls) at 200 µM amounted to 95.2%. As for `Fc1cc(F)c2[nH]c(CCCCCCCC[n+]3ccc4ccccc4c3)cc2c1` [Compound 521], the “% Inhibition” value under setting [2] amounted to 29.59%.

Turning to `FC(F)(F)c1ccc2cc(CCCCC[n+]3ccccc3)[nH]c2c1` [Compound 290], the “% Inhibition” value (compound at 0.1 mM (Table 314)) worked out at 12.89%. Take `Fc1cc(F)c2[nH]c(CCCCCCC[n+]3ccccc3)cc2c1` [Compound 304]: the “% Inhibition” value (compound at 0.1 mM (Table 314)) is given as 29.48%. With `c1ccc2c[n+](CCCc3cc4ccccc4[nH]3)ccc2c1` [Compound 498], the “% Inhibition” value under setting [2] was found to be 47.31%. For `Fc1ccc2[nH]c(CCCC[n+]3ccccc3)cc2c1` [Compound 343], the “% Inhibition” value under setting [2] turned out to be 10.82%.

Compound `CC(=O)c1ccc2[nH]c(CCCCCCCOC(=O)c3cccc([N+](C)(C)C)c3)cc2c1` [Compound 878] displayed an IC50 of 80 µM and an inhibition at 100 µM of 96.4%. As for `O=C(c1ccccc1)c1ccc2[nH]c(CCCCCCCC[n+]3cccc4ccccc43)cc2c1` [Compound 467], the “% Inhibition” value under setting [2] was determined as 15.08%. Regarding `CN(C)c1ccc(CC(=O)OCCCCCn2ccc3cc([N+](=O)[O-])ccc32)cc1` [Compound 849], the “% Inhibition” value (compound at 0.1 mM (Table 314)) stood at 90.92%. Moreover, the IC50 (lead compounds (Table 318A), read-out: IC 50) amounted to 70 µM. As to `c1ccc(-c2ccc3[nH]c(CCCCCCC[n+]4cccc5ccccc54)cc3c2)cc1` [Compound 436], the “% Inhibition” value under setting [2] is on record as 11.57%. Consider `Fc1cc(F)c2[nH]c(CCCCCCCC[n+]3ccccc3)cc2c1` [Compound 305], for which the “% Inhibition” value under setting [2] is recorded as 54.83%. For `C[N+](C)(C)c1ccc(CC(=O)OCCCCCCCCOc2cccc([N+](=O)[O-])c2)cc1` [Compound 1085], the IC50 came to 138 µM and the inhibition at 200 µM came out at 87%. For the compound `c1ccc(-c2ccc3[nH]c(CCC[n+]4ccccc4)cc3c2)cc1` [Compound 324], the “% Inhibition” value under setting [2] is 34.99%. For the compound `COC(=O)c1cc2cc(OCc3ccccc3)ccc2n1CCCCCCCOC(=O)Cc1ccc([N+](C)(C)C)cc1` [compound 1105], under setting [1], the “% Inhibition” value is given as 167%. As for `COC(=O)c1cc2cc(OCc3ccccc3)ccc2n1CCCCCCCCCOC(=O)c1ccc[n+](C)c1` [Compound 978], for the setting “compound at 0.1 mM (Table 314)”, the “% Inhibition” value was found to be 80.31%. For `O=[N+]([O-])c1cc([N+](=O)[O-])c2[nH]c(CCCCCCCC[n+]3ccc4ccccc4c3)cc2c1` [Compound 527], under setting [2], the “% Inhibition” value was found to be 73.78%.

`C[n+]1cccc(C(=O)OCCCCCCCCOc2cccc(OC(=O)c3ccccc3)c2)c1` [compound 1059]: the “% Inhibition” value under setting [1] was found to be 85%.

Turning to `CC(C)c1ccc2[nH]c(CCCCC[n+]3ccccc3)cc2c1` [Compound 320], for the setting “compound at 0.1 mM (Table 314)”, the “% Inhibition” value was 44.72%. As to `COC(=O)c1cc2cc(OCc3ccccc3)ccc2n1CCCCCCCCCOC(=O)Cc1ccc(N(C)C)cc1` [Compound 966], where the note is “compound at 0.05 mM”, the “% Inhibition” value came out at 8.25%. On to `C[n+]1cccc(CC(=O)OCCCCCCCc2cc3cc(C(=O)c4ccccc4)ccc3[nH]2)c1` [Compound 941], for which the IC50 is 50 µM and the inhibition at 100 µM worked out at 100%. Compound `CC(C)c1ccc2[nH]c(CCCCCCCCOC(=O)c3ccc([N+](C)(C)C)cc3)cc2c1` [Compound 891] had an IC50 of 80 µM and an inhibition at 250 µM of 99.9%. In the case of `Fc1cc(F)c2[nH]c(CCCC[n+]3ccc4ccccc4c3)cc2c1` [Compound 517], under setting [2], the “% Inhibition” value turned out to be 34.72%. For the compound `c1ccc(Oc2ccc3[nH]c(CCCC[n+]4ccccc4)cc3c2)cc1` [Compound 349], the IC50 amounted to 75 µM and the inhibition at 100 µM came to 86.6%. For `C[n+]1cccc(C(=O)OCCCCCCCCOc2ccc(C=CC(=O)c3ccccc3)cc2)c1` [compound 1063], the “% Inhibition” value under setting [1] is reported as 32%.

`CC(C)c1ccc2[nH]c(CCCCCCCCOC(=O)Cc3ccc[n+](C)c3)cc2c1` [Compound 936] came in with an IC50 of 60 µM and an inhibition at 100 µM of 97.8%. For the compound `CC(=O)c1ccc2[nH]c(CCCCCCC[n+]3ccccc3)cc2c1` [Compound 370], the “% Inhibition” value under setting [2] was determined as 41.34%. As for `C[n+]1cccc(C(=O)OCCCCCCCn2ccc3ccccc32)c1` [Compound 968], the “% Inhibition” value under setting [2] is recorded as 88.52%. Compound `CC(=O)c1ccc(OCCCCCCCCOC(=O)Cc2ccc([N+](C)(C)C)cc2)cc1` [Compound 1078] showed an IC50 of 123 µM and an inhibition at 200 µM of 68%.

As for `CC(C)c1ccc2[nH]c(CCCCOC(=O)Cc3ccc[n+](C)c3)cc2c1` [Compound 934], the “% Inhibition” value (compound at 0.25 mM) turned out to be 98.5%. For the compound `c1ccc(-c2ccc3[nH]c(CCCC[n+]4ccccc4)cc3c2)cc1` [Compound 325], the “% Inhibition” value (compound at 0.1 mM (Table 314)) is recorded as 53.22%. Regarding `CN(C)c1ccc(CC(=O)OCCCCCCCCOc2ccccc2C(N)=O)cc1` [Compound 1031], the IC50 amounted to 36.3 µM and the inhibition at 200 µM was 23%. In the case of `CC(=O)c1ccc2[nH]c(CCCCCCC[n+]3cccc4ccccc43)cc2c1` [Compound 478], the “% Inhibition” value under setting [2] came out at 9.76%. As to `O=C(O)c1ccc2[nH]c(CCC[n+]3ccccc3)cc2c1` [Compound 384], the “% Inhibition” value under setting [2] was 4.10%. In the case of `CCCCc1oc2ccccc2c1C(=O)c1ccc(OCCCOC(=O)c2ccc[n+](C)c2)cc1` [Compound 1064], the IC50 amounted to 37.5 µM and the inhibition at 200 µM was 92%. In turn, `C[N+](C)(C)c1cccc(C(=O)OCCCCCCCCc2cc3cc(C(=O)c4ccccc4)ccc3[nH]2)c1` [Compound 882] came in with an IC50 of 90 µM and an inhibition at 100 µM of 94.5%.

Take `C[N+](C)(C)c1ccc(C(=O)OCCCCCCCc2cc3cc(Oc4ccccc4)ccc3[nH]2)cc1` [Compound 887]: the IC50 was determined as 25 µM. Take `CC(=O)c1ccccc1OCCCCCCCCOC(=O)c1ccc[n+](C)c1` [compound 1056]: the “% Inhibition” value under setting [1] is listed as 18%.

In the case of `CCCCc1ccc2[nH]c(CCC[n+]3ccc4ccccc4c3)cc2c1` [Compound 528], under setting [2], the “% Inhibition” value is on record as 65.81%. Take `CC(C)c1ccc2[nH]c(CCC[n+]3ccc4ccccc4c3)cc2c1` [Compound 534]: the “% Inhibition” value under setting [2] came to 26.99%. For `FC(F)(F)c1ccc2[nH]c(CCCCCCCC[n+]3ccccc3)cc2c1` [Compound 365], the “% Inhibition” value under setting [2] is given as 16.45%. For the compound `COC(=O)c1cc2ccccc2n1CCCCCCOC(=O)c1ccc[n+](C)c1` [Compound 971], for the setting “compound at 0.1 mM (Table 314)”, the “% Inhibition” value stood at 100.00%. `CC(C)c1ccc2[nH]c(CCCCCCCCOC(=O)c3ccc[n+](C)c3)cc2c1` [Compound 921] had an IC50 of 25 µM and an inhibition at 100 µM of 96.7%.

For `C[n+]1ccc(C(=O)OCCCCCCCCc2cc3cc(Oc4ccccc4)ccc3[nH]2)cc1` [Compound 903], the “% Inhibition” value (compound at 0.25 mM) turned out to be 95.5%.

Consider `NC(=O)c1ccc(OCCCCCCCCOC(=O)c2cccnc2)cc1` [Compound 1014], for which, under setting [1], the “% Inhibition” value is 14%. Turning to `FC(F)(F)c1ccc2[nH]c(CCCCCCCC[n+]3cccc4ccccc43)cc2c1` [Compound 473], the “% Inhibition” value under setting [2] was 15.06%.

Turning to `C[N+](C)(C)c1ccc(C(=O)OCCCCc2cc3cc(Oc4ccccc4)ccc3[nH]2)cc1` [Compound 886], the IC50 came to 80 µM and at 100 µM the inhibition was 94.5%. `c1ccc(C(c2ccccc2)(c2ccccc2)c2ccc3[nH]c(CCCCCC[n+]4ccc5ccccc5c4)cc3c2)cc1` [Compound 555]: the “% Inhibition” value under setting [2] is listed as 30.89%. Consider `C[n+]1cccc(C(=O)OCCCCCCCCOc2ccc(OC(=O)c3ccccc3)cc2)c1` [compound 1062], for which the “% Inhibition” value under setting [1] was found to be 18%.

On to `O=[N+]([O-])c1cc([N+](=O)[O-])c2[nH]c(CCCCCCC[n+]3ccccc3)cc2c1` [Compound 310], for which the “% Inhibition” value under setting [2] was 38.29%. In the case of `O=C(O)c1ccc2[nH]c(CCCCCCC[n+]3cccc4ccccc43)cc2c1` [Compound 496], the “% Inhibition” value under setting [2] is given as 36.97%. Turning to `Fc1cc(F)c2[nH]c(CCC[n+]3ccc4ccccc4c3)cc2c1` [Compound 516], under setting [2], the “% Inhibition” value came to 29.95%. Compound `CC(C)c1ccc2[nH]c(CCCCCCCCOC(=O)c3cccc([N+](C)(C)C)c3)cc2c1` [Compound 876] came in with an IC50 of 75 µM and an inhibition at 100 µM of 95.4%. Take `CC(=O)c1cccc(OCCCCCCCCOC(=O)c2cccnc2)c1` [Compound 1015]: the “% Inhibition” value under setting [1] worked out at 15%. Regarding `COC(=O)c1ccc2[nH]c(CCC[n+]3ccc4ccccc4c3)cc2c1` [Compound 594], the “% Inhibition” value under setting [2] was determined as 2.77%.

The values are drawn from patent US6727237B2, “Inhibitors of bacterial NAD synthetase” (priority 1998, dated 2004).
